Measurements taken from article PMC10714400, “Antimicrobial Peptide–Peptoid Hybrids with and without Membrane Disruption” (ACS Infectious Diseases, 2023).
pIC50: −log10 of the molar value. In brackets after ≈: the same amount, converted by molar mass. Where a SMILES comes first, the peptide text is derived from it. [ ]: non-standard residue; d: D form. Nleu = CC(C)CNCC(=O)O; Nlys = NCCCCNCC(=O)O

Experiments:
HEK293 cells = assay: Cell viability assay by Alamar blue
Method in brief: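 Alamar blue viability readout on HEK293 cells grown in DMEM high glucose and A549 cells grown in RPMI-1640, each with 10% FBS and 1% penicillin/streptomycin, at 37 °C under 5% CO2. Mean ± SD, n = 3.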

PA14 2P4 (pmrB) = system: PA14 2P4 (pmrB)
Method in brief: (§1)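 Microdilution MIC in MH broth; inocula from overnight LB cultures at 37 °C, about 5 × 10^5 CFU per well. Plates stood ca. 18 h at 37 °C, then MTT (1 mg/mL) was added for 20–30 min at RT, and wells remaining yellow marked inhibition.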

[1] = system: ZEM-1A (clinical MDR P. aeruginosa isolate)
Method in brief: as §1

A. baumannii ATCC19606 = system: A. baumannii ATCC19606
Method in brief: (§2)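 MTT added (20–30 min, room temperature); MIC read by eye as lowest concentration inhibiting visible growth (yellow). Polymyxin B positive control from 16 μg/mL.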

PA14 4.18 (pmrB) = system: PA14 4.18 (pmrB)
Method in brief: as §1

S. aureus COL (MRSA) = system: S. aureus COL (MRSA)
Method in brief: as §1

K. pneumoniae OXA-48 = details: […] MH at pH 8.5
Method in brief: as §1

[2] = system: ZEM9A (clinical MDR P. aeruginosa isolate); details: […] MH at pH 8.5
Method in brief: as §1

P. aeruginosa PAO1 = system: P. aeruginosa PAO1
Method in brief: as §1

E. cloacae = details: […] MH at pH 8.5
Method in brief: as §1

PA14 4.13 (phoQ) = system: PA14 4.13 (phoQ)
Method in brief: as §1

K. pneumoniae NCTC418 = system: K. pneumoniae NCTC418
Method in brief: as §2

E. coli W3110 = system: E. coli W3110
Method in brief: as §1

[3] = Circular dichroism, α-helical content; format: physicochemical; details: 0.1 mg/mL; for CD %α with 5 mM DPC: 10 mM phosphate buffer pH 7.4, 5 mM DPC; for CD %α with 20% TFE: 10 mM phosphate buffer pH 7.4, 20% TFE
[4] = diluted MH ([…] MH) at pH 8.5 (Table 2 footnote b)

SMILES: CC(C)CN(CC(N)=O)C(=O)CN(CC(C)C)C(=O)CN(CC(C)C)C(=O)CN(CCCCN)C(=O)CN(CC(C)C)C(=O)CN(CC(C)C)C(=O)CN(CCCCN)C(=O)CN(CC(C)C)C(=O)CN(CC(C)C)C(=O)CN(CCCCN)C(=O)CNCCCCN [EB11, kkllkllklll] (H-[Nlys][Nlys][Nleu][Nleu][Nlys][Nleu][Nleu][Nlys][Nleu][Nleu][Nleu]-NH2)
- Toxicity against HEK293 cells, no effect detected up to (HEK293 cells; Alamar blue, 24 h): > 200 µM
- pIC50 (HEK293 cells; read-out: Toxicity on HEK293 cells, CSV): < 3.70
- MIC P. aeruginosa PA14 2P4, […] MH at pH 8.5 (PA14 2P4 (pmrB); CSV, […] MH at pH 8.5): 12 ug/mL
- MIC P. aeruginosa PA14 2P4 (PA14 2P4 (pmrB); Table S3, […] MH at pH 8.5): 8 to 16 µg/mL
- MIC PA14 2P4 (pmrB) (PA14 2P4 (pmrB); [4]): 8 to 16 µg/mL
- MIC P. aeruginosa ZEM-1A, […] MH at pH 8.5 ([1]; CSV, […] MH at pH 8.5): 3 ug/mL
- MIC P. aeruginosa ZEM-1A ([1]; Table S3, […] MH at pH 8.5): 2 to 4 µg/mL
- MIC ZEM-1A [1, 4]: 2 to 4 µg/mL
- MIC A. baumannii ATCC19606, […] MH at pH 7.4 (A. baumannii ATCC19606; CSV, […] MH at pH 7.4): 16 ug/mL
- MIC A. baumannii ATCC19606, […] MH at pH 8.5 (A. baumannii ATCC19606; CSV, […] MH at pH 8.5): 16 ug/mL
- MIC A. baumannii ATCC19606, full MH at pH 7.4 (A. baumannii ATCC19606; CSV, full MH at pH 7.4): >32 ug/mL
- MIC A. baumannii ATCC19606, full MH at pH 8.5 (A. baumannii ATCC19606; CSV, full MH at pH 8.5): >32 ug/mL
- MIC A. baumannii ATCC19606 […] 7.4 (A. baumannii ATCC19606; Table S2, […] MH, pH 7.4): 16 µg/mL (≈ 12.1 µM)
- MIC A. baumannii ATCC19606 […] 8.5 (A. baumannii ATCC19606; Table S2, […] MH, pH 8.5): 16 µg/mL (≈ 12.1 µM)
- MIC A. baumannii ATCC19606 Full MH 7.4 (A. baumannii ATCC19606; Table S2, full MH, pH 7.4): > 32 µg/mL
- MIC A. baumannii ATCC19606 Full MH 8.5 (A. baumannii ATCC19606; Table S2, full MH, pH 8.5): > 32 µg/mL
- MIC P. aeruginosa PA14 4.18, […] MH at pH 8.5 (PA14 4.18 (pmrB); CSV, […] MH at pH 8.5): 12 ug/mL
- MIC P. aeruginosa PA14 4.18 (PA14 4.18 (pmrB); Table S3, […] MH at pH 8.5): 8 to 16 µg/mL
- MIC PA14 4.18 (pmrB) (PA14 4.18 (pmrB); [4]): 8 to 16 µg/mL
- MIC S. aureus COL (MRSA), […] MH at pH 7.4 (S. aureus COL (MRSA); CSV, […] MH at pH 7.4): >32 ug/mL
- MIC S. aureus COL (MRSA), […] MH at pH 8.5 (S. aureus COL (MRSA); CSV, […] MH at pH 8.5): 6 ug/mL
- MIC S. aureus COL (MRSA), full MH at pH 7.4 (S. aureus COL (MRSA); CSV, full MH at pH 7.4): >32 ug/mL
- MIC S. aureus COL (MRSA), full MH at pH 8.5 (S. aureus COL (MRSA); CSV, full MH at pH 8.5): >32 ug/mL
- MIC S. aureus COL (MRSA) […] 7.4 (S. aureus COL (MRSA); Table S2, […] MH, pH 7.4): > 32 µg/mL
- MIC S. aureus COL (MRSA) […] 8.5 (S. aureus COL (MRSA); Table S2, […] MH, pH 8.5): 4 to 8 µg/mL
- MIC S. aureus COL (MRSA) Full MH 7.4 (S. aureus COL (MRSA); Table S2, full MH, pH 7.4): > 32 µg/mL
- MIC S. aureus COL (MRSA) Full MH 8.5 (S. aureus COL (MRSA); Table S2, full MH, pH 8.5): > 32 µg/mL
- MIC S. aureus COL (MRSA) […] (S. aureus COL (MRSA); diluted MH ([…] MH, pH 8.5) per Table 1 footnote b, 16–20 h at 37 °C): >32 µg/mL
- MIC K. pneumoniae OXA-48, […] MH at pH 8.5 (K. pneumoniae OXA-48; CSV): 32 ug/mL
- MIC K. pneumoniae OXA-48 (K. pneumoniae OXA-48; Table S3): 32 µg/mL (≈ 24.2 µM)
- MIC P. aeruginosa ZEM9A, […] MH at pH 8.5 ([2]; CSV): 4 ug/mL
- MIC P. aeruginosa ZEM9A ([2]; Table S3): 4 µg/mL (≈ 3.03 µM)
- MIC P. aeruginosa PAO1, […] MH at pH 7.4 (P. aeruginosa PAO1; CSV, […] MH at pH 7.4): 8 ug/mL
- MIC P. aeruginosa PAO1, full MH at pH 7.4 (P. aeruginosa PAO1; CSV, full MH at pH 7.4): >32 ug/mL
- MIC P. aeruginosa PAO1, full MH at pH 8.5 (P. aeruginosa PAO1; CSV, full MH at pH 8.5): >32 ug/mL
- Antibacterial activity as a function of NaCl concentration (P. aeruginosa PAO1; P. aeruginosa PAO1, […] MH at pH 8.5, up to 300 mM NaCl): strongly reduced
- MIC P. aeruginosa PAO1 […] 7.4 (P. aeruginosa PAO1; Table S2, […] MH, pH 7.4): 8 µg/mL (≈ 6.05 µM)
- MIC P. aeruginosa PAO1 […] 8.5 (P. aeruginosa PAO1; Table S2, […] MH, pH 8.5): 4 µg/mL (≈ 3.03 µM)
- MIC P. aeruginosa PAO1 Full MH 7.4 (P. aeruginosa PAO1; Table S2, full MH, pH 7.4): > 32 µg/mL
- MIC P. aeruginosa PAO1 Full MH 8.5 (P. aeruginosa PAO1; Table S2, full MH, pH 8.5): > 32 µg/mL
- MIC E. cloacae, […] MH at pH 8.5 (E. cloacae; CSV): 16 ug/mL
- MIC E. cloacae (E. cloacae; Table S3): 16 µg/mL (≈ 12.1 µM)
- MIC P. aeruginosa PA14 4.13, […] MH at pH 8.5 (PA14 4.13 (phoQ); CSV, […] MH at pH 8.5): 6 ug/mL
- MIC P. aeruginosa PA14 4.13 (PA14 4.13 (phoQ); Table S3, […] MH at pH 8.5): 4 to 8 µg/mL
- MIC PA14 4.13 (phoQ) (PA14 4.13 (phoQ); [4]): 4 to 8 µg/mL
- MIC K. pneumoniae NCTC418, […] MH at pH 7.4 (K. pneumoniae NCTC418; CSV, […] MH at pH 7.4): 32 ug/mL
- MIC K. pneumoniae NCTC418, […] MH at pH 8.5 (K. pneumoniae NCTC418; CSV, […] MH at pH 8.5): 32 ug/mL
- MIC K. pneumoniae NCTC418, full MH at pH 7.4 (K. pneumoniae NCTC418; CSV, full MH at pH 7.4): >32 ug/mL
- MIC K. pneumoniae NCTC418, full MH at pH 8.5 (K. pneumoniae NCTC418; CSV, full MH at pH 8.5): >32 ug/mL
- MIC K. pneumoniae NCTC418 […] 7.4 (K. pneumoniae NCTC418; Table S2, […] MH, pH 7.4): 32 µg/mL (≈ 24.2 µM)
- MIC K. pneumoniae NCTC418 […] 8.5 (K. pneumoniae NCTC418; Table S2, […] MH, pH 8.5): 32 µg/mL (≈ 24.2 µM)
- MIC K. pneumoniae NCTC418 Full MH 7.4 (K. pneumoniae NCTC418; Table S2, full MH, pH 7.4): > 32 µg/mL
- MIC K. pneumoniae NCTC418 Full MH 8.5 (K. pneumoniae NCTC418; Table S2, full MH, pH 8.5): > 32 µg/mL
- MIC E. coli W3110, […] MH at pH 7.4 (E. coli W3110; CSV, […] MH at pH 7.4): 8 ug/mL
- MIC E. coli W3110, […] MH at pH 8.5 (E. coli W3110; CSV, […] MH at pH 8.5): 3 ug/mL
- MIC E. coli W3110, full MH at pH 7.4 (E. coli W3110; CSV, full MH at pH 7.4): >32 ug/mL
- MIC E. coli W3110, full MH at pH 8.5 (E. coli W3110; CSV, full MH at pH 8.5): >32 ug/mL
- Antibacterial activity as a function of NaCl concentration (E. coli W3110; E. coli W3110, […] MH at pH 8.5, up to 300 mM NaCl): strongly reduced
- MIC E. coli W3110 […] 7.4 (E. coli W3110; Table S2, […] MH, pH 7.4): 8 µg/mL (≈ 6.05 µM)
- MIC E. coli W3110 […] 8.5 (E. coli W3110; Table S2, […] MH, pH 8.5): 2 to 4 µg/mL
- MIC E. coli W3110 Full MH 7.4 (E. coli W3110; Table S2, full MH, pH 7.4): > 32 µg/mL
- MIC E. coli W3110 Full MH 8.5 (E. coli W3110; Table S2, full MH, pH 8.5): > 32 µg/mL
- CD %α with 5 mM DPC ([3]; DichroWeb, Contin-LL): 7%
- CD %α with 20% TFE ([3]; DichroWeb, Contin-LL): 8%
- CD %α with 5 mM DPC ([3]; Table S2): 7%
- CD %α with 20% TFE ([3]; Table S2): 8%
